Reference: ChEMBL document CHEMBL3217700, “Synthesis and SAR studies of benzimidazole derivatives as melanin concentrating hormone receptor 1 (MCHR1) antagonists: Focus to detune hERG inhibition” (Medchemcomm, 2011)

What was measured:
[1] = biological target: hERG (KCNH2) (Homo sapiens, UniProt Q12809); assay: Inhibition of human ERG expressed in HEK293 cells at 1 uM after 5 mins by patch clamp assay; assay type: cell-based; conditions: HEK293 cells that express hERG
[2] = biological target: T1, Melanin-concentrating hormone receptor 1 (Homo sapiens, UniProt Q99705); assay: Antagonist activity at MCHR1 (unknown origin) assessed as IP3 levels by cell-based functional assay
T1 sequence (Q99705 whole entry): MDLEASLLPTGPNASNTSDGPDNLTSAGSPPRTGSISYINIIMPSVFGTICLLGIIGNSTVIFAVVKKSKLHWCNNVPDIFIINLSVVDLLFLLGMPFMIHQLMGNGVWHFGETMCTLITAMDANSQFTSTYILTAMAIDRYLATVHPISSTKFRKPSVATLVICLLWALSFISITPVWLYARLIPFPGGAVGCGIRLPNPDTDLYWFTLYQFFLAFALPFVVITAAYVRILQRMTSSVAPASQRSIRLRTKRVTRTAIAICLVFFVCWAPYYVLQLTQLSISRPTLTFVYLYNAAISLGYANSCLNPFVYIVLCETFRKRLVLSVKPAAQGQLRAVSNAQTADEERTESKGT

[3] = biological target: T1, Melanin-concentrating hormone receptor 1; assay: Displacement of [125I]MCH from human recombinant MCHR1 expressed CHO-K1 cell membrane by SPA-YSI assay; assay type: cell membranes
[4] = species: Homo sapiens; assay: Selectivity ratio of IC50 for human ERG to IC50 for MCHR1 (unknown origin) assessed as IP3 levels by cell-based functional assay
[5] = biological target: Voltage-gated inwardly rectifying potassium channel KCNH2 (Homo sapiens, UniProt Q12809); assay: Inhibition of human ERG expressed in HEK293 cells after 5 mins by patch clamp assay; assay type: cell-based
Voltage-gated inwardly rectifying potassium channel KCNH2, sequence (Q12809 whole entry): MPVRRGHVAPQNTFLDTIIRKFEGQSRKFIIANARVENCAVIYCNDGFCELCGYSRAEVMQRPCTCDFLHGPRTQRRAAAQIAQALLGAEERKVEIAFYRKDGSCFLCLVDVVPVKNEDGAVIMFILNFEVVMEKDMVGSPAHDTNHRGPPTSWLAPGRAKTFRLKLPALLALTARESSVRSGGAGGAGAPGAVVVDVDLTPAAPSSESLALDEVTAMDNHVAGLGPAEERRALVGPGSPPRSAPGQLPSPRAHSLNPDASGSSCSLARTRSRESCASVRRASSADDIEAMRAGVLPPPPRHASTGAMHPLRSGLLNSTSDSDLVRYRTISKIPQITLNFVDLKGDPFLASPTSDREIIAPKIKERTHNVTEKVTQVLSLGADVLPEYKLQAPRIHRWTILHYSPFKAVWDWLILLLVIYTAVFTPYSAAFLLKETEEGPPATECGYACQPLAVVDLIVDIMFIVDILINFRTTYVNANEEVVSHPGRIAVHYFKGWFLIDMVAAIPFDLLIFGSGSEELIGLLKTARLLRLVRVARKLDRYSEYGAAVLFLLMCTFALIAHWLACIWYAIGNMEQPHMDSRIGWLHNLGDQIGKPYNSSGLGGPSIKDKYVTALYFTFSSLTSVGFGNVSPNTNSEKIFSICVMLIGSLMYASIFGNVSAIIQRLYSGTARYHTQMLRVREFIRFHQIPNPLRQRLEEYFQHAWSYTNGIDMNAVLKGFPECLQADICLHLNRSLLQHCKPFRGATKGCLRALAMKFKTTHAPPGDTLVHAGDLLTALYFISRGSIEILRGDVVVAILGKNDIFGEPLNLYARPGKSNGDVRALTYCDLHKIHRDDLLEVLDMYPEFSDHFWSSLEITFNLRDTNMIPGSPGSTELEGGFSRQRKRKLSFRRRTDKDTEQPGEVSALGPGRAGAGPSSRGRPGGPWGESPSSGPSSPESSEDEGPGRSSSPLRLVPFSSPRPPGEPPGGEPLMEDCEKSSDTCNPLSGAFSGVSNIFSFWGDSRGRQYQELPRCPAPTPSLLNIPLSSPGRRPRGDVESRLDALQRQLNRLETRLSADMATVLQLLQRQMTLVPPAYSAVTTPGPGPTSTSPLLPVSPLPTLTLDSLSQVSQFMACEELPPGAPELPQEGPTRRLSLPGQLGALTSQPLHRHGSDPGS

hERG (KCNH2), sequence (Q12809 whole entry): as above

SMILES: CC(=O)Nc1cccc(C2CCN(Cc3ccc(C(=O)c4nc5cnccc5n4-c4ccc(F)cc4)cc3)CC2)c1
- inhibition at 5 min, 1 µM [1]: 36%
- IC50 [2]: 0.059 µM
- IC50 [3]: 0.012 µM

SMILES: CC(=O)Nc1cccc(C2CCN(CCCCc3nc4ccccc4n3-c3ccc(F)cc3)CC2)c1
- Ratio IC50 [4]: 10

SMILES: CC(=O)Nc1cccc(C2CCN(Cc3ccc(C(=O)c4nc5ccccc5n4-c4ccc(F)cc4)cc3C#N)CC2)c1
- IC50 [2]: 0.385 µM
- IC50 [3]: 0.651 µM

SMILES: CC(=O)Nc1cccc(C2CCN(Cc3ccc(Cc4nc5ccccc5n4-c4ccc(F)cc4)cc3)CC2)c1
- inhibition at 5 min, 1 µM [1]: 98%
- IC50 [2]: 0.003 µM
- IC50 [3]: 0.0009 µM

SMILES: CC(=O)Nc1cccc(C2CCN(Cc3ccc(C(=O)c4nc5ccccc5n4-c4ccc(F)cc4)cn3)CC2)c1
- inhibition at 5 min, 1 µM [1]: 27%
- IC50 [2]: 0.066 µM
- IC50 [3]: 0.027 µM

SMILES: CC(=O)Nc1cccc(C2CCN(Cc3ccc(C(=O)c4nc5ccccc5n4C4CC4)cc3)CC2)c1
- IC50 [2]: 0.412 µM
- IC50 [3]: 0.271 µM

SMILES: CC(=O)Nc1cccc(C2CCN(Cc3ccc(C(=O)c4nc5ccccc5n4-c4ccc(C(F)(F)F)cc4)cc3)CC2)c1
- IC50 [2]: 1.37 µM
- IC50 [3]: 1 µM

SMILES: CC(=O)Nc1cccc(C2CCN(Cc3ccc(C(=O)c4nc5ccccc5n4-c4ccc(C#N)cc4)cc3)CC2)c1
- IC50 [2]: 0.26 µM
- IC50 [3]: 0.172 µM

SMILES: CC(=O)Nc1cccc(C2CCN(Cc3ccc(C(=O)c4nc5cccnc5n4-c4ccc(F)cc4)cc3)CC2)c1
- inhibition at 5 min, 1 µM [1]: 58%
- IC50 [2]: 0.053 µM
- IC50 [3]: 0.014 µM

SMILES: CC(=O)Nc1cccc(C2CCN(Cc3ccc(C(=O)c4nc5ccccc5n4-c4ccc(F)cc4)cc3F)CC2)c1
- IC50 [2]: 0.08 µM
- IC50 [3]: 0.046 µM

SMILES: CC(=O)Nc1cccc(C2CCN(Cc3ccc(C(=O)c4nc5ccccc5n4C4CCOCC4)cc3)CC2)c1
- IC50 [2]: 0.047 µM
- IC50 [3]: 0.055 µM
- Ratio IC50 [4]: 24
- IC50 [5]: 1.2 µM

SMILES: CC(=O)Nc1cccc(C2CCN(Cc3ccc(C(=O)c4nc5ccccc5n4-c4ccc(F)cc4)cc3)CC2)c1
- IC50 [2]: 0.015 µM
- IC50 [3]: 0.011 µM

SMILES: CC(=O)Nc1cccc(C2CCN(Cc3ccc(C(=O)c4nc5ccccc5n4-c4ccc(F)cc4)nc3)CC2)c1
- inhibition at 5 min, 1 µM [1]: 37%
- IC50 [2]: 0.037 µM
- IC50 [3]: 0.011 µM

SMILES: CC(=O)Nc1cccc(C2CCN(Cc3ccc(Cc4nc5ccccc5n4-c4ccc(F)cc4)cc3C#N)CC2)c1
- inhibition at 5 min, 1 µM [1]: 42%
- IC50 [2]: 0.003 µM
- IC50 [3]: 0.01 µM
- Ratio IC50 [4]: 131

SMILES: CC(=O)Nc1cccc(C2CCN(Cc3ccc(C(=O)c4nc5ccccc5n4C(C)C)cc3)CC2)c1
- IC50 [2]: 0.131 µM
- IC50 [3]: 0.138 µM

SMILES: CC(=O)Nc1cccc(C2CCN(Cc3ccc(C(=O)c4nc5ccccc5n4C)cc3)CC2)c1
- IC50 [2]: 0.817 µM
- IC50 [3]: 0.289 µM

SMILES: CC(=O)Nc1cccc(C2CCN(Cc3ccc(Oc4nc5ccccc5n4-c4ccc(F)cc4)cc3)CC2)c1
- inhibition at 5 min, 1 µM [1]: 80%
- IC50 [2]: 0.053 µM
- IC50 [3]: 0.008 µM

SMILES: CC(=O)Nc1cccc(C2CCN(Cc3ccc(C(=O)c4nc(C)c(C)n4-c4ccc(F)cc4)cc3)CC2)c1
- IC50 [2]: 0.096 µM
- IC50 [3]: 0.022 µM
- Ratio IC50 [4]: 18
- IC50 [5]: 1.7 µM

SMILES: CC(=O)Nc1cccc(C2CCN(Cc3ccc(C(=O)c4nc5ccccc5n4-c4ccc(Cl)cc4)cc3)CC2)c1
- IC50 [2]: 0.217 µM
- IC50 [3]: 0.034 µM
- Ratio IC50 [4]: 26
- IC50 [5]: 1.7 µM

SMILES: CC(=O)Nc1cccc(C2CCN(Cc3ccc(C(=O)c4nc5ccccc5n4-c4ccc(F)cc4)cc3Cl)CC2)c1
- IC50 [2]: 0.336 µM
- IC50 [3]: 0.184 µM

SMILES: CC(=O)Nc1cccc(C2CCN(C(C)c3ccc(C(=O)c4nc5ccccc5n4-c4ccc(F)cc4)cc3)CC2)c1 (stereo unspecified)
- IC50 [2]: 0.259 µM
- IC50 [3]: 0.15 µM

SMILES: CC(=O)Nc1cccc(C2CCN(Cc3ccc(C(=O)c4nc5ccccc5n4-c4ccc(F)cc4)cc3C(F)(F)F)CC2)c1
- IC50 [2]: > 10 µM
- IC50 [3]: 3.25 µM

SMILES: CC(=O)Nc1cccc(C2CCN(Cc3ccc(C(=O)c4nc5c(F)cc(F)cc5n4-c4ccc(F)cc4)cc3)CC2)c1
- inhibition at 5 min, 1 µM [1]: 70%
- IC50 [2]: 0.043 µM
- IC50 [3]: 0.015 µM

SMILES: CC(=O)Nc1cccc(C2CCN(CCCNc3nc4ccccc4n3-c3ccc(F)cc3)CC2)c1
- Ratio IC50 [4]: 3
